From EP3426036B1, “CROP ENHANCEMENT” (priority 2016, dated 2017)

Experiments:
Assay type in all cases: in vivo
[1] = test system: spring wheat (Triticum aestivum L.) of the variety Taifun; assay: Whole plant transpiration analysis
Method: For whole plant transpiration analysis, spring wheat (Triticum aestivum L.) of the variety Taifun was grown under pest free conditions in 1.2 L growth columns filled with a field soil (sandy loam). Plants were daily watered to a target soil water content of 0.25 g H2O g^-1 dry soil. Plant growth and transpiration analysis was in growth chambers at 25/18 °C (day/night), 60 % relative humidity and a light intensity of 600 µmol m^-2 s^-1 at 14 hours of photoperiod. Transpiration was measured by monitoring the weight of the plant-pot-system with an automated weighing system. Application of compound I formulated as EC 100 at 75 g ha^-1 was done with a track sprayer at 200 L ha^-1 when plants were at BBCH 23. Transpiration was monitored at optimal watering for seven days after application, afterwards watering was stopped. The experimental layout was a randomized complete block design with nine replications per treatment; one experimental unit was two plants per pot. The transpiration before treatment was used as covariant for statistical analysis (ANOVA, Agstat 1.6 / ACSAP 4.29).

Soybean plants = assay: Crop enhancement effect on soybean under drought conditions, yield analysis (Example 2a); conditions: drought until day 65
Method: Soybean plants were grown in pots. The plants were treated at R1 (36 days after sewing) or R3 (44 days after sewing) with the compound of formula I at 0.75 l/ha. An untreated control plant was also included. After treatment, the plants were subjected to drought conditions until the end of the trial at day 65. Five replicates of the control and each treatment were harvested for analysis of yield and enzymatic activity. […]

[2] = test system: bread wheat (Triticum aestivum L.) and durum wheat (Triticum durum Desf.); assay: Further wheat field trials under controlled and natural drought stress (Example 1e); conditions: for average grain yield increase compared to untreated check / mean TGW increase versus untreated check: multitrial analysis; for average grain yield increase compared to untreated check: all 26 disease-free modalities, 30 or 75 g ha^-1; for mean TGW increase versus untreated check: controlled and natural drought stress, 20 modalities; for grain yield increase compared to untreated check: only trials under controlled drought stress conditions
Text: Wheat field trials were designed as randomized complete blocks with six replicates. Sowing, fertilization and general crop maintenance were done in accordance to locally accepted best practice. Crop protection maintenance products were applied preventatively only if required across all trial area (check and experimental plots and boundary areas) including locally registered seed treatment products, herbicides and insecticides. In case of potential disease attack, DMI and/or contact fungicides were applied preventatively. Application of fungicides from Qo inhibitors (strobilurines) and SDHI groups were not allowed to avoid possible interaction with compound I experimental treatments. Any products with plant growth regulator effects were excluded as well. Pesticides were applied not less than three to four days before or after experimental applications of compound I.
Following assessments were taken: general phytotoxicity at 7 and 14 days after application, general pest damage ratings before harvest, grain yield adjusted to 10% standard moisture (calculation based on fresh grain weight and grain moisture at harvest), thousand grain weight (TGW) adjusted to 10% standard moisture.
Entire plots or only central treated areas were harvested manually using cutters with stationary threshers (trials located in Argentina, Egypt and India) or with small-plot combine-harvesters (trials located in France, Italy and USA).
Single trial statistical analysis of variance (ANOVA) was done with Agstat 1.6 / ACSAP 4.29. Multi-trial analysis was based on paired t-test with comparison of compound I experimental treatments versus untreated checks and was done with TIBCO® Spotfire® 7.0.1.
To minimize risk of environmental impacts from rain on drought stress period and level, all proposed locations were validated through internal Environment and Crop Modelling process. This modelling allowed to calculate the potential drought stress intensity through estimation of climatic cumulative water deficit (sum of all daily water deficit during reproductive stage of wheat development). Daily water deficit was calculated as difference between daily precipitation and daily evapotranspiration by wheat plants. Thirty-eight candidate locations were proposed as suitable for drought stress trials. We performed field trials at fifteen locations from which we present results from the eleven disease-free trials that originated from seven locations: Egypt (Kaha), Italy (Foggia), India (Dongargaon, Mandleshwar and Sanwer) and USA (Woodland, CA; Jerome, ID).
Each field trial had two adjacent blocks: well-watered (WW) block with untreated check plots used for stress level estimation and grain yield reference and water-stressed (WS) block with experimental treatments including untreated check plots. Plot size varied between trials from 8.45 m^2 (Woodland, US) up to 30 m^2 (Kaha, EG) and harvested plot size was from 8.45 m^2 (Woodland, US) up to 20.7 m^2 (India). Seven locally adapted drought sensitive commercial varieties of spring and winter bread wheat (Triticum aestivum L.) and durum wheat (Triticum durum Desf.) were tested: var. Massimo Meridio (Foggia, IT), var. Saha 94 and Sods 12 (Kaha, EG), var. GW322 and GW366 (India), var. Alturas (Jerome, US) and var. Summit 515 (Woodland, US).
To manage drought stress, three types of water irrigation systems were used: precise drip irrigation (Kaha, EG; Foggia, IT; Woodland, US), solid-set sprinkler irrigation (Jerome, US) and flood irrigation (all sites in India). Plants in WW blocks were well irrigated from sowing till harvest to compensate 100% of evapotranspiration demand, targeting the optimum yield achievable in the trial area. Plants in WS blocks were irrigated from planting till the beginning of pre-stress period exactly at the same level of water supply as in WW conditions. […]

For Cn1cc(C(=O)Nc2cccc3c2C2CCC3C2=C(Cl)Cl)c(C(F)F)n1 (centres unmarked) [Compound I, benzovindiflupyr], the “impact on biomass accumulation” value ([1]; EC 100 at 75 g ha^-1) was “no negative impact”, the “transpiration decrease compared to untreated control plants” value ([1]; EC 100 at 75 g ha^-1, BBCH 23, within one day, constant soil water content) was “about 8%” and the shoot dry weight ([1]; EC 100 at 75 g ha^-1, end of the experiment, control plants same value) was 6.3 ± 0.4 g plant^-1. For the same molecule, the “transpiration rate during soil drying compared to untreated control plants” value ([1]; EC 100 at 75 g ha^-1, irrigation withheld eight days after application) was “transiently higher transpiration rate”, the “duration of transpiration decrease” value ([1]; EC 100 at 75 g ha^-1, optimal watering) was “consistent for at least seven days” and the “Dry weight of pods” value (Soybean plants; 0.75 l/ha @ R1) was 114.8 % of control. For the same molecule, the “Dry weight of pods” value (Soybean plants; 0.75 l/ha @ R3) was 122.7 % of control, the general phytotoxicity ([2]; EC 100 at 30 or 75 g ha^-1, BBCH 39 to 55, all trials, 7 and 14 days after application) was “did not cause any phytotoxic effects” and the “average grain yield increase with 75 g ha^-1 compared to the rate of 30 g ha^-1” value ([2]; controlled drought stress conditions) was “+0.23 dt ha^-1”. For the same molecule, the “average grain yield increase compared to untreated check” value [2] was “+5.2%”, the “average grain yield increase compared to untreated check” value ([2]; 95% CI +1.45 to +3.21 dt ha^-1) was “+2.33 dt ha^-1” and the “mean TGW increase versus untreated check” value [2] was “+1.9%”. The “mean TGW increase versus untreated check” value ([2]; 95 % CI [+0.23, +1.13] g 1000 seeds^-1) was 0.68 g 1000 seeds^-1, the “grain yield increase compared to untreated check” value [2] was “+6.0%” and the “grain yield increase compared to untreated check” value ([2]; 95% CI [+1.69, +4.03] dt ha^-1) was “+2.86 dt ha^-1”. The “TGW compared to untreated check” value ([2]; single trial ANOVA, p ≤ 0.05) was “did not detect any significant effect” and the “grain yield adjusted to 10% standard moisture compared to untreated check” value ([2]; single trial ANOVA, p ≤ 0.05) was “did not detect any significant effect”.
